In patent publication US11591336B2 (Relay Therapeutics, Inc., priority 2017, dated 2023):
pIC50: −log10 of the molar value. Counter-ions that a name gives are not always drawn.

Target: SHP2 (Homo sapiens (Human), UniProt Q06124)
Experiment: SHP2 Allosteric Inhibition Assay (DiFMUP prompt fluorescence)
Assay type: biochemical
Conditions: 0.25 nM SHP2 activated with 0.5 μM peptide IRS1_pY1172(dPEG8)pY1222; substrate DiFMUP 100 μM; 25° C.

Compound	pIC50
c1cncc(COC2CCN(c3cnc4c(N5CCCc6ncccc65)n[nH]c4n3)CC2)c1 [Compound 140]	≤ 5.00
CC1(C)CCN(c2cnc3c(N4CCCc5ncccc54)n[nH]c3n2)CC1 [Compound 141]	≤ 5.00
c1ccc(OC2CCCN(c3cnc4c(N5CCCc6ncccc65)n[nH]c4n3)C2)cc1 (stereo not shown) [Compound 142]	≤ 5.00
OC1CCCN(c2cnc3c(N4CCCc5ncccc54)n[nH]c3n2)C1 (stereo not shown) [Compound 143]	≤ 5.00
c1ccc(CC2CCCN2c2cnc3c(N4CCCc5ncccc54)n[nH]c3n2)cc1 (stereo not shown) [Compound 144]	≤ 5.00
CC1(CO)CCN(c2cnc3c(N4CCCc5ncccc54)n[nH]c3n2)CC1 [Compound 145]	≤ 5.00
c1ccc(CC2CCN(c3cnc4c(N5CCCc6ncccc65)n[nH]c4n3)C2)cc1 (stereo not shown) [Compound 146]	≤ 5.00
c1ccc(C2CCCN2c2cnc3c(N4CCCc5ncccc54)n[nH]c3n2)cc1 (stereo not shown) [Compound 147]	≤ 5.00
CC1CCCCN1c1cnc2c(N3CCCc4ncccc43)n[nH]c2n1 (stereo not shown) [Compound 148]	≤ 5.00
NC(=O)C1CCCN(c2cnc3c(N4CCCc5ncccc54)n[nH]c3n2)C1 (stereo not shown) [Compound 149]	≤ 5.00
NC[C@@H]1C[C@H]2CC[C@@H](C1)N2c1cnc2c(N3CCCc4ncccc43)n[nH]c2n1 [Compound 150]	> 6.00
c1ccc(C2CCN(c3cnc4c(N5CCCc6ncccc65)n[nH]c4n3)C2)cc1 (stereo not shown) [Compound 151]	≤ 5.00
c1ccc(C2CCCN(c3cnc4c(N5CCCc6ncccc65)n[nH]c4n3)C2)cc1 (stereo not shown) [Compound 152]	≤ 5.00
CCC1(C)CCN(c2cnc3c(N4CCCc5ncccc54)n[nH]c3n2)CC1 [Compound 153]	≤ 5.00
c1cnc2c(c1)N(c1n[nH]c3nc(N4CCCCC4)cnc13)CCC2 [Compound 155]	≤ 5.00
c1cncc(COC2CCCN(c3cnc4c(N5CCCc6ncccc65)n[nH]c4n3)C2)c1 (stereo not shown) [Compound 156]	≤ 5.00
NC(=O)C1CCN(c2cnc3c(N4CCCc5ncccc54)n[nH]c3n2)CC1 [Compound 157]	5.00 to 6.00
NC(=O)NC1CCN(c2cnc3c(N4CCCc5ncccc54)n[nH]c3n2)CC1 [Compound 160]	≤ 5.00
c1ccc(CC2CCCCN2c2cnc3c(N4CCCc5ncccc54)n[nH]c3n2)cc1 (stereo not shown) [Compound 161]	≤ 5.00
c1ccc(C2CCCCN2c2cnc3c(N4CCCc5ncccc54)n[nH]c3n2)cc1 (stereo not shown) [Compound 162]	≤ 5.00
NC[C@H]1CCN(c2cnc3c(N4CCCc5ncccc54)n[nH]c3n2)[C@H](c2ccccc2)C1 [Compound 167]	5.00 to 6.00
NC[C@@H]1CCN(c2cnc3c(N4CCCc5ncccc54)n[nH]c3n2)[C@@H](c2ccccc2)C1 [Compound 168]	5.00 to 6.00
CC1CCN(c2n[nH]c3nc(N4CCC(CN)(CC(=O)O)CC4)cnc23)c2cccnc21 (stereo not shown) [Compound 171, 2-[4-(aminomethyl)-1-[3-(4-methyl-1,2,3,4-tetrahydro-1,5-naphthyridin-1-yl)-1H-pyrazolo[3,4-b]pyrazin-6-yl]piperidin-4-yl]acetic acid]	5.00 to 6.00
COC(=O)NCC1(C)CCN(c2cnc3c(N4CCCc5cc(C#N)ccc54)n[nH]c3n2)CC1 [Compound 174, methyl ((1-(3-(6-cyano-3,4-dihydroquinolin-1(2H)-yl)-1H-pyrazolo[3,4-b]pyrazin-6-yl)-4-methylpiperidin-4-yl)methyl)carbamate]	≤ 5.00
NC(C(=O)O)C1CCN(c2cnc3c(N4CCCc5ncccc54)n[nH]c3n2)CC1 (stereo not shown) [Compound 178, 2-amino-2-{1-[3-(1,2,3,4-tetrahydro-1,5-naphthyridin-1-yl)-1H-pyrazolo[3,4-b]pyrazin-6-yl]piperidin-4-yl}acetic acid dihydrochloride]	5.00 to 6.00

Second part, the molecule after the results:

pIC50	Compound
> 6.00	CNC(=O)c1ccc2c(c1)CCN2c1n[nH]c2nc(N3CCC(C)(CN)CC3)cnc12 [Compound 113, 1-(6-(4-(aminomethyl)-4-methylpiperidin-1-yl)-1H-pyrazolo[3,4-b]pyrazin-3-yl)-N-methylindoline-5-carboxamide]
> 6.00	CC1(CN)CCN(c2cnc3c(N4CCc5cc(C(N)=O)ccc54)n[nH]c3n2)CC1 [Compound 114, 1-(6-(4-(aminomethyl)-4-methylpiperidin-1-yl)-1H-pyrazolo[3,4-b]pyrazin-3-yl)indoline-5-carboxamide]
> 6.00	CC1(CN)CCN(c2cnc3c(N4CCC(C#N)c5ccccc54)n[nH]c3n2)CC1 (stereo not shown) [Compound 117]
> 6.00	CC1(CN)CCN(c2cnc3c(N4CCc5ccccc54)n[nH]c3n2)CC1 [Compound 118]
> 6.00	CC1(CN)CCN(c2cnc3c(N4CCC(O)c5ccccc54)n[nH]c3n2)CC1 (stereo not shown) [Compound 119, 1-(6-(4-(aminomethyl)-4-methylpiperidin-1-yl)-1H-pyrazolo[3,4-b]pyrazin-3-yl)-1,2,3,4-tetrahydroquinolin-4-ol]
> 6.00	Cc1c(C#N)ccc2c1CCCN2c1n[nH]c2nc(N3CCC(C)(CN)CC3)cnc12 [Compound 120]
> 6.00	Cn1cc(-c2cccc3c2CCCN3c2n[nH]c3nc(N4CCC(C)(CN)CC4)cnc23)cn1 [Compound 121]
> 6.00	CC1(CN)CCN(c2cnc3c(N4CCCc5c4ccc(C#N)c5C4CC4)n[nH]c3n2)CC1 [Compound 122]
> 6.00	CC1CN(c2n[nH]c3nc(N4CCC(C)(CN)CC4)cnc23)c2ccccc21 (stereo not shown) [Compound 123]
> 6.00	CC1(CN)CCN(c2cnc3c(N4CCc5ncccc54)n[nH]c3n2)CC1 [Compound 124]
5.00 to 6.00	CC1(CN)CCN(c2cnc3c(N4CCc5cnccc54)n[nH]c3n2)CC1 [Compound 125]
> 6.00	CC1(CN)CCN(c2cnc3c(N4CCCc5nc(C#N)ccc54)n[nH]c3n2)CC1 [Compound 126]
> 6.00	CN1CCN(c2n[nH]c3nc(N4CCC(C)(CN)CC4)cnc23)c2ccccc21 [Compound 127]
> 6.00	CC1(CN)CCN(c2cnc3c(N4CCCc5c(Cl)cccc54)n[nH]c3n2)CC1 [Compound 130]
> 6.00	Cn1cc(-c2c(C#N)ccc3c2CCCN3c2n[nH]c3nc(N4CCC(C)(CN)CC4)cnc23)cn1 [Compound 131]
> 6.00	CC1(CN)CCN(c2cnc3c(N4CCCc5c4ccnc5Cl)n[nH]c3n2)CC1 [Compound 132]
> 6.00	CC1(CN)CCN(c2cnc3c(N4CCc5cc(C#N)ccc54)n[nH]c3n2)CC1 [Compound 133]
> 6.00	C[C@H]1Cc2ccccc2N1c1n[nH]c2nc(N3CCC(C)(CN)CC3)cnc12 [Compound 134]

pIC50	Compound
> 6.00	C[C@@H]1Cc2ccccc2N1c1n[nH]c2nc(N3CCC(C)(CN)CC3)cnc12 [Compound 135]
> 6.00	NS(=O)(=O)C1CCCN(c2cnc3c(N4CCCc5ncccc54)n[nH]c3n2)C1 (stereo not shown) [Compound 137]
> 6.00	OCC1CCCCN1c1cnc2c(N3CCCc4ncccc43)n[nH]c2n1 (stereo not shown) [Compound 138]
> 6.00	c1ccc(CC2CCCN(c3cnc4c(N5CCCc6ncccc65)n[nH]c4n3)C2)cc1 (stereo not shown) [Compound 139]
> 6.00	CC1(CN)CCN(c2cnc3c(N4CCOc5ccccc54)n[nH]c3n2)CC1 [Compound 163]
> 6.00	CC1(CN)CCN(c2cnc3c(N4CCc5c(C#N)cccc54)n[nH]c3n2)CC1 [Compound 164]
> 6.00	CC1CCN(c2n[nH]c3nc(N4CCC(C)(CN)CC4)cnc23)c2ccc(-c3ncn[nH]3)cc21 (stereo not shown) [Compound 165]
> 6.00	CC1(CNC(=O)OCCSSCCOC(=O)NCC2(C)CCN(c3cnc4c(N5CCCc6ncccc65)n[nH]c4n3)CC2)CCN(c2cnc3c(N4CCCc5ncccc54)n[nH]c3n2)CC1 [Compound 166, disulfanediylbis(ethane-2,1-diyl) bis(((1-(3-(3,4-dihydro-1,5-naphthyridin-1(2H)-yl)-1H-pyrazolo[3,4-b]pyrazin-6-yl)-4-methylpiperidin-4-yl)methyl)carbamate)]
> 6.00	CC1c2ccccc2CCN1c1n[nH]c2nc(N3CCC(C)(CN)CC3)cnc12 (stereo not shown) [Compound 169]
> 6.00	C[C@H]1c2ccccc2CN1c1n[nH]c2nc(N3CCC(C)(CN)CC3)cnc12 [Compound 170]
> 6.00	CC1(CN)CCN(c2cnc3c(N4CCCc5cc(-c6ncon6)ccc54)n[nH]c3n2)CC1 [Compound 172, (1-(3-(6-(1,2,4-oxadiazol-3-yl)-3,4-dihydroquinolin-1(2H)-yl)-1H-pyrazolo[3,4-b]pyrazin-6-yl)-4-methylpiperidin-4-yl)methanamine]
> 6.00	CC1(CN)CCN(c2cnc3c(N4CCc5c(-c6nccs6)cccc54)n[nH]c3n2)CC1 [Compound 173]
> 6.00	CC1(CN)CCN(c2cnc3c(N4CCCc5nc(C(N)=O)ccc54)n[nH]c3n2)CC1 [Compound 175, 5-(6-(4-(aminomethyl)-4-methylpiperidin-1-yl)-1H-pyrazolo[3,4-b]pyrazin-3-yl)-5,6,7,8-tetrahydro-1,5-naphthyridine-2-carboxamide]
> 6.00	NCC1(CN)CCN(c2cnc3c(N4CCCc5ncccc54)n[nH]c3n2)CC1 [Compound 177, 1-[4-(aminomethyl)-1-[3-(1,2,3,4-tetrahydro-1,5-naphthyridin-1-yl)-1H-pyrazolo[3,4-b]pyrazin-6-yl]piperidin-4-yl]methanamine dihydrochloride]
> 6.00	NCC1(N)CCN(c2cnc3c(N4CCCc5ncccc54)n[nH]c3n2)CC1 [Compound 179]
> 6.00	NCC1(C(N)=O)CCN(c2cnc3c(N4CCCc5ncccc54)n[nH]c3n2)CC1 [Compound 180, 4-(aminomethyl)-1-(3-(3,4-dihydro-1,5-naphthyridin-1(2H)-yl)-1H-pyrazolo[3,4-b]pyrazin-6-yl)piperidine-4-carboxamide]
> 6.00	CC1(CN)CCN(c2cnc3c(N4CCC(C(F)F)c5cc(C#N)ccc54)n[nH]c3n2)CC1 (stereo not shown) [Compound 181, 1-{6-[4-(aminomethyl)-4-methylpiperidin-1-yl]-1H-pyrazolo[3,4-b]pyrazin-3-yl}-4-(difluoromethyl)-1,2,3,4-tetrahydroquinoline-6-carbonitrile]
> 6.00	Cn1cc(-c2ccc3c(n2)CCCN3c2n[nH]c3nc(N4CCC(C)(CN)CC4)cnc23)cn1 [Compound 182]
